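Five concentrations, 48 hours, 96-well plates. GI50 marks 50% less growth.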 Active and inactive are the calls of the source. No stated cut-off is given here; in the data, active = GI50 up to about 1.1 µM and inactive = higher.
Assays:
Experiment in all cases: DTP human tumour cell line panel, 48 h
[1] = system: DLD-1
[2] = system: DMS-273
[3] = system: NCI-H460
[4] = system: LOX IMVI
[5] = system: HCT-15
[6] = system: RPMI-8226
[7] = system: M19-MEL
[8] = system: HCT-116
[9] = system: A549
[10] = system: SF-539
[11] = system: NCI-H226
[12] = system: A498
[13] = system: COLO 205
[14] = system: SN12C
[15] = system: KM-20L2
[16] = system: HOP-92
[17] = system: XF498
[18] = system: UO-31
[19] = system: SK-MEL-5
[20] = system: SW-620
[21] = system: SK-MEL-2
[22] = system: MOLT-4
[23] = system: UACC-257
[24] = system: TK-10
[25] = system: NCI-H23
[26] = system: EKVX
[27] = system: SF-295
[28] = system: IGROV-1
[29] = system: SNB-78
[30] = system: HT-29
[31] = system: NCI-H522
[32] = system: LXFL 529
[33] = system: CCRF-CEM
[34] = system: HL-60
[35] = system: KM12
[36] = system: SF-268
[37] = system: OVCAR-5
[38] = system: Malme-3M
[39] = system: OVCAR-3
[40] = system: K562
[41] = system: M14
[42] = system: OVCAR-8
[43] = system: ACHN
[44] = system: 786-0
[45] = system: HOP-62
[46] = system: UACC-62
[47] = system: HOP-18
[48] = system: HCC 2998
[49] = system: SNB-19
[50] = system: CAKI-1
[51] = system: SK-OV-3
[52] = system: U-251
[53] = system: MCF7
[54] = system: SNB-75
[55] = system: MDA-N
[56] = system: SR
[57] = system: DMS-114
[58] = system: MDA-MB-231
[59] = system: DU-145
[60] = system: OVCAR-4
[61] = system: Hs-578T
[62] = system: MDA-MB-435
[63] = system: SK-MEL-28
[64] = system: T47D
[65] = system: RXF 393
[66] = system: BT-549
[67] = system: PC-3
[68] = system: NCI/ADR-RES

COc1ccc2c(c1)CC[C@@H]1C2CC[C@]2(C)C(=N\O)/C(=N/O)CC12 (some centres undefined)
GI50 [1]: 13.1 µM (inactive) | GI50 [2]: 12 µM (inactive) | GI50 [3]: 3.41 µM (inactive) | GI50 [4]: 2.43 µM (inactive) | GI50 [5]: 12.4 µM | GI50 [6]: 9.31 µM (inactive) | GI50 [7]: 17.2 µM (inactive) | GI50 [8]: 16 µM (inactive) | GI50 [9]: 10.1 µM (inactive) | GI50 [10]: 18.5 µM (inactive) | GI50 [11]: 11 µM (inactive) | GI50 [12]: 19.1 µM (inactive) | GI50 [13]: 14.3 µM (inactive) | GI50 [14]: 17.7 µM (inactive) | GI50 [15]: 6.21 µM (inactive) | GI50 [16]: 16.1 µM (inactive) | GI50 [17]: 14.5 µM (inactive) | GI50 [18]: 12.8 µM (inactive) | GI50 [19]: 12.7 µM (inactive) | GI50 [20]: 17.6 µM (inactive) | GI50 [21]: 13.1 µM (inactive) | GI50 [22]: 4.79 µM (inactive) | GI50 [23]: 16.7 µM (inactive) | GI50 [24]: 18.2 µM (inactive) | GI50 [25]: 10.2 µM (inactive) | GI50 [26]: 18.7 µM (inactive) | GI50 [27]: 10 µM (inactive) | GI50 [28]: 3.64 µM (inactive) | GI50 [29]: 17 µM (inactive) | GI50 [30]: 2.24 µM (inactive) | GI50 [31]: 2.93 µM (inactive) | GI50 [32]: 12.8 µM (inactive) | GI50 [33]: 9.68 µM (inactive) | GI50 [34]: 14.2 µM (inactive) | GI50 [35]: 11.2 µM (inactive) | GI50 [36]: 17.9 µM (inactive) | GI50 [37]: 12.4 µM (inactive) | GI50 [38]: 17.7 µM (inactive) | GI50 [39]: 12.4 µM (inactive) | GI50 [40]: 8.32 µM (inactive) | GI50 [41]: 13.4 µM (inactive) | GI50 [42]: 16.5 µM (inactive) | GI50 [43]: 15.7 µM (inactive) | GI50 [44]: 17.5 µM (inactive) | GI50 [45]: 11.7 µM (inactive) | GI50 [46]: 13.4 µM (inactive) | GI50 [47]: 15.7 µM (inactive) | GI50 [48]: 22.3 µM (inactive) | GI50 [49]: 16.6 µM (inactive) | GI50 [50]: 10.7 µM (inactive) | GI50 [51]: 18.4 µM (inactive) | GI50 [52]: 15.4 µM (inactive)

O=C(O)c1cc2c(s1)C(=O)c1sccc1C2=O
GI50 [1]: 14.4 µM (inactive) | GI50 [2]: 10.9 µM (inactive) | GI50 [53]: 2.8 µM (inactive) | GI50 [3]: 17.3 µM (inactive) | GI50 [4]: 1.32 µM (inactive) | GI50 [5]: 3.93 µM | GI50 [6]: 12.7 µM (inactive) | GI50 [54]: 1.82 µM (inactive) | GI50 [7]: 1.24 µM (inactive) | GI50 [8]: 2.22 µM (inactive) | GI50 [55]: 0.769 µM (active) | GI50 [9]: 4.25 µM (inactive) | GI50 [10]: 1.95 µM (inactive) | GI50 [11]: 19.6 µM (inactive) | GI50 [12]: 17.5 µM (inactive) | GI50 [56]: 2.81 µM (inactive) | GI50 [13]: 17.2 µM (inactive) | GI50 [14]: 2.73 µM (inactive) | GI50 [15]: 19.2 µM (inactive) | GI50 [16]: 16.3 µM (inactive) | GI50 [17]: 20.9 µM (inactive) | GI50 [18]: 5.98 µM (inactive) | GI50 [57]: 3.34 µM (inactive) | GI50 [19]: 1.82 µM (inactive) | GI50 [20]: 2.31 µM (inactive) | GI50 [21]: 2.23 µM (inactive) | GI50 [22]: 8.71 µM (inactive) | GI50 [58]: 9.73 µM (inactive) | GI50 [23]: 3.51 µM (inactive) | GI50 [59]: 2.33 µM (inactive) | GI50 [24]: 20.1 µM (inactive) | GI50 [60]: 6.7 µM (inactive) | GI50 [25]: 2.2 µM (inactive) | GI50 [26]: 15.7 µM (inactive) | GI50 [27]: 2.26 µM (inactive) | GI50 [61]: 2.49 µM (inactive) | GI50 [62]: 0.774 µM (active) | GI50 [28]: 17.1 µM (inactive) | GI50 [29]: 0.264 µM (active) | GI50 [30]: 5.64 µM (inactive) | GI50 [63]: 1.9 µM (inactive) | GI50 [31]: 3.54 µM (inactive) | GI50 [33]: 6.84 µM (inactive) | GI50 [34]: 4.18 µM (inactive) | GI50 [64]: 4.97 µM (inactive) | GI50 [35]: 8.07 µM (inactive) | GI50 [36]: 5.24 µM (inactive) | GI50 [65]: 6.87 µM (inactive) | GI50 [37]: 9.91 µM (inactive) | GI50 [38]: 0.659 µM (active) | GI50 [39]: 4.81 µM (inactive) | GI50 [40]: 4.03 µM (inactive) | GI50 [41]: 1.43 µM (inactive) | GI50 [42]: 4.09 µM (inactive) | GI50 [43]: 8.43 µM (inactive) | GI50 [44]: 8.34 µM (inactive) | GI50 [45]: 6.11 µM (inactive) | GI50 [46]: 2.08 µM (inactive) | GI50 [47]: 5.52 µM (inactive) | GI50 [48]: 18.7 µM (inactive) | GI50 [66]: 1.91 µM (inactive) | GI50 [67]: 9.82 µM (inactive) | GI50 [49]: 5.48 µM (inactive) | GI50 [50]: 12.4 µM (inactive) | GI50 [51]: 20.6 µM (inactive) | GI50 [52]: 5.02 µM (inactive) | GI50 [68]: 5.4 µM (inactive)
